Measured values as given in PMC6332165, “Study of the Relationships between the Structure, Lipophilicity and Biological Activity of Some Thiazolyl-carbonyl-thiosemicarbazides and Thiazolyl-azoles” (Molecules, 2015).

Assays:
phagocytes = system: phagocytes; set-up: method as in PMID 23504664; conditions: turpentine oil-induced inflammation, mean ± SD; cited from earlier work
[1] = Lipophilicity by reversed-phase thin-layer chromatography (RP-TLC), isopropanol-water mobile phase; assay type: physicochemical; conditions: RP-18F254s TLC, iso-propanol-water 45-65% (v/v); for RM0 (lipophilicity estimation parameter, intercept of RM = RM0 + bC): extrapolated to pure water
Protocol: Some of the parameters resulting from a RP-TLC may be associated to the lipophilic character of the analytes. The retention parameters (RM) are calculated by means of well-known Batte-Smith and Westall Equation (1): RM = log (1/RF − 1) (1)
Generally, the RM values determined by RP-TLC are linearly dependent on the concentration of the organic modifier (C) in the mobile phase Equation (2): RM = RM0 + bC (2) where b and RM0 are, respectively, the slope and the intercept of Equation (2). […] Additionally, it has been stated that not only the RM0, but also the slope, b, as a characteristic of the specific hydrophobic surface area of the compounds, can be used as an estimation of lipophilicity. The advantages of TLC methods consist in the small quantity of compounds needed for the determination, and the rapidity and simplicity of the method. Also, they are inexpensive, rapid and easy to perform.
Chromatography was performed on 20 × 20 cm RP-18F254s TLC precoated silica plates (Merck; Darmstadt, Germany). Solutions (1 mg/mL) of the tested compounds were prepared in iso-propanol, and 3 μL aliquots were spotted in duplicate on the plates by hand, 10 mm from the bottom edge and 20 mm apart. The mobile phases were composed of the iso-propanol-water binary mixtures, with a varying content of organic modifier between 45% and 65% (v/v) in 5% increments, as the study compounds differed considerably in their retention. Chromatography was performed in a normal developing chamber at room temperature, the developing distance being 10 cm. The chromatography chamber was saturated with the mobile phase for 30 min before use. After the development (30–60 min), the plates were air dried at room temperature and examined under a UV lamp (λ = 254 nm), and the RF (retardation factor) values were measured manually by a digital caliper. The experiments were performed in triplicate.

oxidative stress = system: oxidative stress; set-up: method as in PMID 23504664; conditions: turpentine oil-induced inflammation, mean ± SD; cited from earlier work
[2] = system: turpentine oil-induced inflammation; set-up: method as in PMID 23504664; Leukocytes (L, leukocytes count):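 lower leukocyte count means stronger anti-inflammatory effect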; conditions: cited from earlier work; for Leukocytes (L, leukocytes count) / PMN (polymorphonuclear leukocytes, differential leucocyte count): mean ± SD
[3] = system: nitric oxide (NO) synthesis; set-up: method as in PMID 23504664; unit not given here; conditions: turpentine oil-induced inflammation, mean ± SD; cited from earlier work

| SMILES | PA (phagocytic activity) (phagocytes) | PI (phagocytosis index) (phagocytes) [%] | b (slope of RM = RM0 + bC, specific hydrophobic surface area) [1] | RM0 (lipophilicity estimation parameter, intercept of RM = RM0 + bC) [1] | OSI (oxidative stress index) (oxidative stress) | TAR (total antioxidant response) (oxidative stress) | TOS (total oxidative status) (oxidative stress) | Leukocytes (L, leukocytes count) [2] | PMN (polymorphonuclear leukocytes, differential leucocyte count) [2] [%] | anti-inflammatory and antioxidant effects (in words) ([2]; overall ranking within the series) | NO (nitric oxide synthesis) [3] |
| --- | --- | --- | --- | --- | --- | --- | --- | --- | --- | --- | --- |
| Cc1nc(-c2ccccc2)sc1-c1nnc(S)s1 [Th-21] | 23 ± 1.9 | 14.5 ± 4.6 | −1.286 | 0.620 | 6.03 ± 4.5 | 1.114 ± 0.007 | 67.137 ± 10.6 | 3000 ± 241 | 52.6 ± 2.1 | best anti-inflammatory and antioxidant effects | 43.737 ± 6.2 |
| CNC(=S)NNC(=O)c1sc(-c2ccccc2)nc1C [Th-4] | 29 ± 1.8 | 22.5 ± 3.5 | −2.355 | 0.986 | 4.49 ± 3.6 | 1.109 ± 0.006 | 49.823 ± 3.6 | 12,218.8 ± 1341 | 82.8 ± 4.1 | – | 47.501 ± 2.8 |
| Cc1ccc(-c2nc(C)c(-c3nnc(S)s3)s2)cc1 [Th-22] | 23.5 ± 0.9 | 35 ± 8.2 | −1.227 | 0.701 | 5.13 ± 4.9 | 1.105 ± 0.001 | 56.694 ± 7.9 | 5812.5 ± 399 | 66.4 ± 0.8 | – | 52.08 ± 8.1 |
| C=CCn1c(S)nnc1-c1sc(-c2ccccc2)nc1C [Th-15] | 29 ± 3.2 | 24 ± 4.3 | −2.905 | 1.664 | 6.32 ± 4.4 | 1.094 ± 0.006 | 69.171 ± 4.4 | 9982.5 ± 81 | 77.4 ± 5.1 | – | 71.630 ± 5.9 |
| Cc1nc(-c2ccccc2)sc1-c1nnc(S)n1-c1ccccc1 [Th-9] | 20.5 ± 0.9 | 21 ± 7.0 | −2.630 | 1.479 | 6.25 ± 5.2 | 1.101 ± 0.001 | 68.780 ± 16.2 | 9000 ± 428 | 67.4 ± 3.0 | – | 65.479 ± 4.8 |
| Cc1nc(-c2ccccc2)sc1-c1nnc(S)n1C [Th-12] | 20 ± 1.5 | 22.5 ± 3.5 | −2.463 | 1.305 | 8.27 ± 4.2 | 1.095 ± 0.004 | 90.592 ± 4.2 | 8456.25 ± 565 | 78.6 ± 1.0 | – | 70.029 ± 6.4 |
| CNC(=S)NNC(=O)c1sc(-c2ccc(C)cc2)nc1C [Th-5] | 22.5 ± 0.9 | 19.5 ± 2.3 | −2.502 | 1.161 | 4.7 ± 3.1 | 1.096 ± 0.001 | 51.557 ± 17.1 | 11,633.3 ± 154 | 59.8 ± 3.6 | – | 47.024 ± 8.9 |
| C=CCn1c(S)nnc1-c1sc(-c2ccc(C)cc2)nc1C [Th-16] | 27 ± 1.1 | 21.2 ± 1.0 | −2.962 | 1.783 | 6.04 ± 4.1 | 1.103 ± 0.009 | 66.681 ± 9.1 | 9225 ± 333 | 77.4 ± 1.9 | – | 63.091 ± 5.1 |
| Cc1nc(-c2ccc(Br)cc2)sc1C(=O)NNC(=S)Nc1ccccc1 [Th-3] | 31 ± 1.8 | 21.5 ± 0.9 | −2.739 | 1.600 | 3.62 ± 2.9 | 1.095 ± 0.003 | 39.601 ± 7.9 | 4987 ± 133 | 63.6 ± 3.9 | – | 52.838 ± 8.9 |
| Cc1ccc(-c2nc(C)c(-c3nnc(S)o3)s2)cc1 [Th-19] | 13.5 ± 2.78 | 20 ± 1.5 | −1.134 | 0.286 | 7.13 ± 5.9 | 1.119 ± 0.009 | 79.849 ± 12 | 7443.75 ± 1172 | 72.8 ± 5.0 | – | 45.198 ± 2.2 |
| Cc1nc(-c2ccc(Br)cc2)sc1-c1nnc(S)n1-c1ccccc1 [Th-11] | 19.75 ± 2.4 | 21 ± 1.1 | −3.133 | 2.020 | 6.08 ± 4.9 | 1.092 ± 0.003 | 66.394 ± 8.9 | 11,137.5 ± 483 | 86.4 ± 2.6 | – | 66.799 ± 5.9 |
| Cc1ccc(-c2nc(C)c(-c3nnc(S)n3-c3ccccc3)s2)cc1 [Th-10] | 23 ± 1.1 | 20.5 ± 0.9 | −2.948 | 1.754 | 4.95 ± 5.4 | 1.095 ± 0.003 | 54.164 ± 5.4 | 5606.25 ± 154 | 61.2 ± 3.4 | – | 65.142 ± 5.3 |
| Cc1ccc(-c2nc(C)c(-c3nnc(S)n3C)s2)cc1 [Th-13] | 27.5 ± 0.9 | 25.5 ± 2.8 | −2.672 | 1.565 | 4.63 ± 3.6 | 1.1 ± 0.012 | 50.886 ± 5.6 | 10,172 ± 331 | 80.8 ± 3.0 | – | 75.451 ± 6.9 |
| CNC(=S)NNC(=O)c1sc(-c2ccc(Br)cc2)nc1C [Th-6] | 18 ± 1.5 | 13 ± 3.2 | −2.740 | 1.398 | 3.93 ± 2.6 | 1.097 ± 0.006 | 43.108 ± 5.6 | 6056.25 ± 862 | 70.4 ± 2.9 | – | 50.591 ± 9.1 |
| C=CCn1c(S)nnc1-c1sc(-c2ccc(Br)cc2)nc1C [Th-17] | 19.5 ± 0.9 | 15 ± 3.5 | −4.737 | 2.808 | 6.38 ± 5.2 | 1.093 ± 0.003 | 69.962 ± 5.2 | 10,147.5 ± 528 | 75.4 ± 5.2 | – | 60.479 ± 11.8 |
